Measured values reported in patent publication US20050137243A1, “Antagonists of melanin concentrating hormone effects on the melanin concentrating hormone receptor” (priority 2003, published 2005).

Experiments:
[1] = Pharmacokinetic drug levels in whole brain after oral dose in DIO-mice; type: in vivo; settings: 10 mpk PO, 0.5-24 h
[2] = Efficacy: % weight loss in diet-induced obese (DIO) mice after two weeks of dosing; type: in vivo; settings: 100 mpk BID, PO, relative to vehicle control animals

SMILES: O=C(Nc1ccc(Oc2ccccc2)cc1)Nc1ccc2c(cnn2CCN2CCCC2)c1 [Example 24, N-(4-phenoxyphenyl)-N′-[1-(2-pyrrolidin-1-ylethyl)-1H-indazol-5-yl]urea]
- Brain Conc. AUC [1]: 1428 ng·h/g
- DIO Mice % weight loss @ 14 days [2]: 15%
